Measured values as given in patent US8765676B2, “Calcium sensing receptor modulating compounds and pharmaceutical use thereof” (Leo Pharma A/S, priority 2009, dated 2014).

Legend:
[1] = molecular target: T1, human CaSR (Homo sapiens, UniProt P41180); experiment: Functional whole cell assay (modulation of human CaSR), IP1 accumulation in CHO-K1 cells; assay type: cell-based; conditions: human CaSR stably expressed on CHO-K1 cells, 2 mM Ca2+, IP-One htrf
T1 sequence (P41180 20-1078): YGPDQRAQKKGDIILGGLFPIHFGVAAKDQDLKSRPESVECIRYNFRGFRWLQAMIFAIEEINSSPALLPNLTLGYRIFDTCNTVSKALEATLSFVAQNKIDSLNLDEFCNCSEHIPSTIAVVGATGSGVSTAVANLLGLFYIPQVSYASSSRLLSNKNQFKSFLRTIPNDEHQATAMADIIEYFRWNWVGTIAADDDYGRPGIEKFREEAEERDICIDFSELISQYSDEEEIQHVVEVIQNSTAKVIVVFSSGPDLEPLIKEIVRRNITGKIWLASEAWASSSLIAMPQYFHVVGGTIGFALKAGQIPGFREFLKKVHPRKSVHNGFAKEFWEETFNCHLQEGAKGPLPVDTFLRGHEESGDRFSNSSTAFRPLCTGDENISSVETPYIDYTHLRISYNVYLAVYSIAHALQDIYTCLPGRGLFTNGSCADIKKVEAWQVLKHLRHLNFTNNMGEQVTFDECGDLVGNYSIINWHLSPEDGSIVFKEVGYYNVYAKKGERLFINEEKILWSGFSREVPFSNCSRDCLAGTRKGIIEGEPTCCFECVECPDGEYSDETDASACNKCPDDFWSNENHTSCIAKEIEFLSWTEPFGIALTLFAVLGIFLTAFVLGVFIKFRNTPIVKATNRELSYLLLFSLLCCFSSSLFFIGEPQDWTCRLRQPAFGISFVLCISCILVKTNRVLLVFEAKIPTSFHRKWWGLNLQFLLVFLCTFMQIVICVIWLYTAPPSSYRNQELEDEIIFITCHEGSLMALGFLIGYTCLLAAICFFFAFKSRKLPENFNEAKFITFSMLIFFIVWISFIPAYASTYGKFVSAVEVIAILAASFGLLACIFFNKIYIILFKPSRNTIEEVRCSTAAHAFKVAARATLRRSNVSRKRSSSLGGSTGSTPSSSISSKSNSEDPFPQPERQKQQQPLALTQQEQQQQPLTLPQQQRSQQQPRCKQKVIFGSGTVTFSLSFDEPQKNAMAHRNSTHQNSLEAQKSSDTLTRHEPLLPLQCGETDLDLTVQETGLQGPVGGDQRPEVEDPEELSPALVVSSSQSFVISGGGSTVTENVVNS
Text: The assay investigates a compound's functional ability to act as a biological positive modulator on the human CaSR. Activation of the receptor expressed on CHO-K1 cells is detected through the G alpha q pathway, the activation of phospholipase C and the accumulation of intracellular inositol phosphate (IP) as described earlier [Sandrine Ferry, Bruno Chatel, Robert H. Dodd, Christine Lair, Danielle Gully, Jean-Pierre, Maffrand, and Martial Ruat. Effects of Divalent Cations and of a Calcimimetic on Adrenocorticotropic Hormone Release in Pituitary Tumor Cells. BIOCHEMICAL AND BIOPHYSICAL RESEARCH COMMUNICATIONS 238, 866-873 (1997)]. The human CaSR is stably expressed on a CHO-K1 cell clone, stimulated with a basal level of calcium and challenged with the tested compound. The level of IP1 is determined using the IP-One htrf kit (Cisbio, France). CHO-K1 cells not transfected with the CaSR fail to elicit an IP1 response upon calcium and/or compound stimulation.
The ORF coding for the human CaSR (genebank: NM_000388) was acquired from Invitrogen Corp, USA and subsequently cloned into the mammalian expression vector pCDA3.1.
CHO-K1 cells were transfected using Lipofectamine according to manufacturer's protocol (400.000 cells/well were seeded in a 6-well plate and transfected after 24 hours using 2 μg DNA and 5 μl lipofectamine). After another 24 hours the cells were detached, seeded and subjected to 1 mg/ml of G-418. Following 7 days growth single clones were picked, the CaSR expression evaluated using the 5C10 antibody against CaSR, the clones with the highest expression were selected and tested for functional response. The preferred clone was continuously cultured according to standard procedures described in ATCC (American Type Culture Collection) protocols for CHO-K1 with the addition of 500 μg/ml G-418.
On the assay day cells were harvested and resuspended to 13*10^6 cells/ml in stimulation buffer (containing: Hepes 10 mM, MgCl2 0.5 mM, KCl 4.2 mM, NaCl 146 mM, glucose 5.5 mM, LiCl 50 mM at pH 7.4). Five μl cell solution were pipetted into a well (white 384-well plate, Perkin Elmer Optiplate) followed by 5 μl compound diluted in a Ca^2+-containing (to the final concentration of 2 mM) buffer. After compound stimulation for 1 hour at 37° C. 10 ul of IP-One assay reagents were added and incubated for another 1 hour at room temperature. Finally the plate was read using a Perkin Elmer EnVision, according to protocol supplied by the IP-One assay kit manufacturer. The FRET ratio was calculated by dividing the 665 nm emission signal with that of the 615 nm.

[2] = Clearance in human liver microsomes; assay type: in vitro ADME; conditions: 0.5 μM compound, 0.5 mg/mL microsomes, 1 mM NADPH
Description: Test compound concentration is 0.5 μM, microsome concentration is 0.5 mg/mL and NADPH concentration is 1 mM in the incubation. The described method is performed by the liquid handling system Tecan RSP and is based on a 96-well format.
Control incubations with test compound without NADPH and test compound without microsomes are conducted to investigate non-CYP mediated metabolism and stability in phosphate buffer at 37° C., respectively.
The human liver microsomal suspension in phosphate buffer is mixed with NADPH. The mixture is pre-heated (7 min) to 37° C. Test compound is added, and the mixture is incubated for 30 minutes. Incubations are run in duplicate. Samples are withdrawn at predetermined stop times and mixed with methanol containing internal standard (IS) to terminate all enzyme activity and precipitate proteins. A control without NADPH (to detect problems such as nonspecific protein binding, heat instability or non-CYP mediated metabolism) and a control without microsomes (for assessing compound stability in the absence of any active enzymes) are tested.
The percentage of organic solvent in the incubations is less than 1%. Careful inspections of reagents are performed prior to the start of any experiment to ensure all reagents are in solution.
The 96-well plates are centrifuged. Test compound depletion, using a compound specific LC/MS/MS method, is determined.
The logarithm of the peak area ratios of test compound to internal standard (IS) versus incubation time is plotted in a graph.
The rate constant (k) (min^−1) of test compound depletion is calculated from the linear part of the curve and the half-time (t1/2) in minutes can be calculated from the rate constant (Eq. 1). t1/2=(ln 2)/k (Eq. 1)
Intrinsic clearance (Clint) (mL/min/mg protein) is calculated from: Clint=k/c (Eq. 2) where c is the microsomal protein concentration in mg/mL.
Conversion to apparent clearance (Clapp) (mL/min/kg) is done by Eq. 3: Clapp=Clint×a×b/d (Eq. 3) where a, b and d are the scaling factors for normalizing Clint to human body weight.
The following human scaling factors are used:
a: 45 (microsomal protein/liver weight (mg/g))
b: 1500 (liver weight (g))
Apparent clearance below approximately 10 mL/min/kg human body weight (corresponding to extraction ratio of approx. 30%) is considered as low clearance (high metabolic stability). Apparent intrinsic clearance above approximately 60 mL/min/kg human body weight (corresponding to extraction ratio of approx. 75%) is considered as high clearance (low metabolic stability).

[3] = Pharmacokinetic profile following intravenous administration in rats; assay type: in vivo; conditions: serum, rat, 0.5 mg/kg
Description: A rat is dosed intravenously with a solution of test compound (0.5 mg/kg) in DMSO/EtOH/H2O/propylene glycol [0.2:0.8:5:4] and blood samples are taken from the sublingual venous plexus after 2 min, 10 min, 30 min, 1 h, 2 h, 4 h and 6 h.
Blood samples are taken in BD Vacutainer SST serum separation tubes, serum is isolated by centrifugation, transferred to micronics tubes and analyzed. Samples are kept at −18° C. pending analysis.
Mass spectrometer (API5000 series) parameters are optimised to analyse for the specific compounds and test injections are performed to confirm the validity of the established generic chromatography method. The generic method is based on fast gradient (2.5 min) analysis on C18 column with mobile phases consisting methanol, ammonium acetate, formic acid and water.
Standards are prepared in rat serum to cover the analytical range 0.1 to 300 ng/ml. Standards, blank serum and study samples are applied to 96 deepwell plate and proteins are precipitated by addition of acetonitrile containing internal standard. Samples are analysed on LC-MS/MS usually over night.
As standard, the 2 and 10 min samples are diluted 10 times with rat serum prior to analysis. Other samples may need similar dilution to keep quantification below 300 ng/ml.
Quantification is performed based on the ratio between analyte and internal standard. The curve should preferably fit a linear curve using a 1/x weighting factor. At least a factor of two is needed to distinguish between blank serum and lowest standard. If this is not the case the quantification of the specific experiment may be raised.
Calculation of T½ requires at least three datapoints describing a true elimination phase. If such three points are not available AUC (0-inf) can not be estimated. In these cases […](0-6 h) is calculated instead.
Total clearance of drug from serum (Cl_iv) is calculated from: Cl—iv=Dose/AUC
Terminal volume of distribution (Vd) is defined as the volume in which the amount of drug would need to be uniformly distributed to produce the observed serum concentration and is calculated from: Vd=T½×Cl—iv/(ln 2)

Row | SMILES | EC50 [1] [nM] | Clearance (Clapp) in human liver microsomes [2] | Vd [3] [L/kg]
1 | COc1cc([C@@H](C)NC2CC[C@H](c3ccc(C(=O)NC4CCNCC4)cc3)C2)ccc1F (mixture of isomers) [Compound 1157, (1R)—(N)-[(3S)-3-[4-[piperidin-4-ylaminocarbonyl]phenyl]-cyclopentyl]-1-(4-fluoro-3-methoxyphenyl)ethanamine] | < 500 | A (A: <20 mL/min/kg) | 10 to 50
2 | COc1cc([C@@H](C)N[C@H]2CC[C@@H](c3ccc(S(=O)(=O)NCCO)cc3)C2)ccc1F [Compound 1187, 4-[(1R,3S)-3-[[(1R)-1-(4-fluoro-3-methoxy-phenyl)ethyl]amino]-cyclopentyl]-N-(2-hydroxyethyl)benzenesulfonamide] | < 500 | A (A: <20 mL/min/kg) | > 50
3 | COc1cc([C@@H](C)NC2CCC(c3ccc(CNS(C)(=O)=O)cc3)C2)ccc1F (mixture of isomers) [Compound 1181, N-[[4-[(1R/S,3R/S)-3-[[(1R)-1-(4-fluoro-3-methoxy-phenyl)ethyl]amino]cyclopentyl]-phenyl]methyl]methanesulfonamide] | < 500 | A (A: <20 mL/min/kg) | –
4 | COc1cc([C@@H](C)N[C@H]2CC[C@@H](c3ccc(C(=O)N4CCNC(=O)C4)cc3)C2)ccc1F [Compound 1179, 4-(4-{(1R,3S)-3-[(1R)-1-(4-Fluoro-3-methoxy-phenyl)-ethylamino]-cyclopentyl}-benzoyl)-piperazin-2-one] | < 500 | A (A: <20 mL/min/kg) | 10 to 50
5 | COc1cc([C@@H](C)N[C@H]2CC[C@@H](c3ccc(C(=O)NCCNS(C)(=O)=O)cc3)C2)ccc1F.Cl [Compound 1178, 4-{(1R,3S)-3-[(1R)-1-(4-Fluoro-3-methoxy-phenyl)-ethylamino]-cyclopentyl}-N-(2-methanesulfonylamino-ethyl)-benzamide hydrochloride] | < 500 | A (A: <20 mL/min/kg) | > 50
6 | COc1cc([C@@H](C)NC2CC[C@H](c3ccc(S(C)(=O)=O)cc3)C2)ccc1F (stereo partly drawn) [Compound 1014, (1R)—(N)-[(1R/S,3S)-3-(4-methanesulfonylphenyl)cyclopentyl]-1-(4-fluoro-3-methoxyphenyl)ethanamine] | < 500 | A (A: <20 mL/min/kg) | –
7 | COc1cc([C@@H](C)N[C@H]2CC[C@@H](c3ccc(-c4nnn[nH]4)cc3)C2)ccc1F [Compound 1182, (1S,3R)—N-[(1R)-1-(4-fluoro-3-methoxy-phenyl)ethyl]-3-[4-(1H-tetrazol-5-yl)phenyl]cyclopentanamine] | < 500 | A (A: <20 mL/min/kg) | < 10
8 | COc1cc([C@@H](C)N[C@H]2CC[C@@H](c3ccc(C(=O)NCCO)cc3)C2)ccc1F [Compound 1176, 4-{(1R,3S)-3-[(1R)-1-(4-Fluoro-3-methoxy-phenyl)-ethylamino]-cyclopentyl}-N-(2-hydroxy-ethyl)-benzamide] | < 500 | A (A: <20 mL/min/kg) | –
